Source: patent publication US10857228B2, “Adjuvant for vaccines, vaccine, and immunity induction method” (The University of Tokyo, priority 2015, dated 2020)

Key:
CD57BL/6 mice = test: IgA induction by spleen cDCs stimulated with OVA, CpG ODN and GM-CSF, intraperitoneally administered to mice; type: in vivo; conditions: spleen cDCs stimulated 24 hours with OVA 100 μg/ml and adjuvant, given i.p. Day 0 and Day 14; oral OVA Day 21 to 25; ELISA Day 32
Description: Spleen cDCs were stimulated for 24 hours using ovalbumin (OVA; 100 μg/ml) as an antigen and CpG ODN 1668 (1 μg/ml) only or the combination of CpG ODN and GM-CSF (10 ng/ml) as an adjuvant.
Here, the fractioning of murine small intestine mucosa lamina propria cells with the dendritic cell marker CD11c and the macrophage marker CD11b produces the 4 groups: R1 (dendritic cells) (CD11c high CD11b low), R2 (dendritic cells) (CD11c high CD11b high), R3 (macrophages) (CD11c int CD11b int), R4 (acidophiles) (CD11c int CD11b high). The R2 dendritic cells specifically express Raldh2 and induce the Th17 response and the IgA production (Non-Patent Literature 1). Therefore, the R2 dendritic cells were stimulated with OVA (100 μg/ml) and CpG ODN 1668 (1 μg/ml) as positive control. Spleen cDCs were stimulated with OVA (100 μg/ml) and CpG ODN 1668 (1 μg/ml) with or without GM-CSF (10 ng/ml).
On Day 0 and Day 14 after the stimulation, dendritic cells (each 5×10^4 cells) (or PBS) which took up the antigen were intraperitoneally administered into CD57BL/6 mice. On Day 21 to Day 25, 1 mg/mouse of OVA was orally administered daily and, on Day 32, total of antigen-specific IpG in serum and antigen-specific IgA in feces were measured by ELISA.

[1] = system: pulmonary mucosa lamina propria cells; test: Cytokine production of pulmonary mucosa lamina propria cells after intranasal booster; type: in vivo, mice; conditions: 7 days after intranasal OVA, cultured 4 days with OVA 100 μg/ml
Description: IFA, IFA+OVA+CpG ODN, IFA+OVA+curdlan, and IFA+OVA+CpG ODN+curdlan were administered to mice by intramuscular injection, respectively. On Day 35, 1 μg/mouse of OVA was administered by intranasal administration to perform booster immunization, and, 7 days later antigen-specific total IgG in the serum and IgA in the bronchoalveolar lavage fluid were measured by ELISA.
In the experiment of 9, 7 days after the intranasal administration of OVA, pulmonary mucosa lamina propria cells were extracted from the mice and cultured in the presence of the antigen (OVA 100 μg/ml) for 4 days and IFN-γ, IL-4, and IL-17 production was measured by ELISA.

Dectin-1 = test: Expression of Dectin-1 in spleen-derived dendritic cells with CpG ODN stimulation; type: cell-based; conditions: spleen-derived dendritic cells stimulated with CpG ODN
Description: Next, the expression of Dectin-1, which is a receptor that recognizes β-1,3-glucan, in dendritic cells was measured. The summary and the result of the experiment are illustrated in FIG. 12. As illustrated in the left panel in the figure, it was confirmed that, in spleen-derived dendritic cells, the expression of Dectin-1 is not high, but the expression of Dectin-1 increases more than 3 times by stimulating the cells with CpG ODN. Dectin-1 is known to induce the Th17 response. These indicate the mechanism of the present invention in which the addition of both of CpG ODN and β-1,3-glucan to the adjuvant makes dendritic cells easy to receive the stimulation with β-1,3-glucan and induces the Th17 response.

Raldh2 = test: Induction of Raldh2 mRNA expression in spleen cDCs (RT-PCR); type: cell-based; conditions: spleen cDCs stimulated 24 hours
Description: Next, zymosan (component of yeast cell wall of Saccharomyces cerevisiae; 25 ng/ml) and curdlan ((β-1,3-glucan derived from Agrobacterium spp., Alcaligenes spp.; 25 ng/ml) were used as glucan-based compound. Spleen cDCs were stimulated with these substances for 24 hours and, after collecting RNA, the expression of Raldh2 mRNA was measured by RT-PCR.

Molecule	antigen-specific IgA in feces (CD57BL/6 mice)	IFN-γ production [1]	increase of expression of Dectin-1 (Dectin-1)	expression of Raldh2 mRNA (Raldh2)
CpG ODN 1668	induced little production of IgA	induced	more than 3 times	
curdlan		induced		induced the expression of Raldh2
granulocyte monocyte colony stimulating factor (protein, UniProt P01587 18-141, looked up, inducer of expression of Raldh2; added with CpG ODN to stimulate spleen cDCs) Granulocyte-macrophage …: APTRSPITVTRPWKHVEAIKEALNLLDDMPVTLNEEVEVVSNEFSFKKLTCVQTRLKIFEQGLRGNFTKLKGALNMTASYYQTYCPPTPETDCETQVTTYADFIDSLKTFLTDIPFECKKPGQK	induced IgA production more than the R2 dendritic cells			induced the expression of Raldh2
